Source: patent US20240299591A1, “Antimicrobial Peptides and Their Use” (priority 2021, published 2024)
Converted amounts (≈) assume the structure as drawn. Where a SMILES comes first, the peptide text is derived from it. [ ]: non-standard residue; d: D form. The star is where a group is joined. X1 = CN1/C(=C/C=C(/C=C/C2=[N+](C)c3ccccc3C2(C)C)c2ccc(C(=O)*)cn2)C(C)(C)c2ccccc21; X2 = O=C1OC2(c3ccc(O)cc3Oc3cc(O)ccc32)c2cccc(C(=O)*)c21

Legend:
Aspergillus fumigatus = assay type: cell-based; conditions: 24 h
Procedure: The assays were performed using Nunc 262162 U96 polystyrene round bottomed clear plates (www.nuncbrand.com).
(§1) When testing the peptides against A. fumigatus, peptides at different concentrations were mixed with A. fumigatus conidia to reach a final volume of 100 μL per well. The final conidial concentration was 5×10^5 cells/mL in 10% Vogel's medium. After 24 h of incubation at 37° C. in 96 well plates, fungal growth with the different peptide concentrations was determined by measurement of the optical density at 610 nm in a TriStar LB 941 Multimode Microplate Reader. The IC50 values were determined using four parameter logistic regression formula provided by Sigma Plot 10.0. Values are represented as means±SEM from two independent experiments (n=3).
(§2) The IC50 of the fluorescently labelled peptides cannot be accurately determined using the optical density method described in the last section. This is because the fluorophore structures absorbed light at 610 nm which was the wavelength used for the optical density measurements. In order to overcome this, the BacTiter-Glo™ Microbial Cell Viability Assay kit purchased from Promega was used. The BacTiter-Glo™ Reagent relies on the properties of a proprietary thermostable luciferase (Ultra-Glo™ Recombinant Luciferase) and a proprietary formulation for extracting ATP from fungal cells which will generates a ‘glow-type’ luminescent signal. This is produced by the luciferase reaction shown in Scheme 1, which has a signal half-life of over 30 min depending on the experimental conditions. The luminescent signal is proportional to the amount of ATP present, which is directly proportional to the number of living cells in culture.
(§3) The IC50 assays for all fluorescently labelled peptides were performed using Greiner CELLSTAR white polystyrene wells flat bottomed 96 well plates. The incubation conditions remained the same for the optical density measurement described in the previous section. Once the incubation procedure was finished, the plate was equilibrated to room temperature. A mixture of BacTiter-Glo™ buffer and substrate was then added to the plate (100 μL per well). The plate was shaken for 5 min and read using the Tristar […] luminometer. Data analysis was performed using Sigma Plot 10.0. All values shown are presented as means±SEM from two independent experiments (n=3).

Fusarium oxysporum = assay type: cell-based; conditions: 24 h
Procedure: Dose dependent inhibition of fungal growth by all non-labelled peptides (indicated by IC50 values) was determined via this methodology. The assays were performed using Nunc 262162 U96 polystyrene round bottomed clear plates (www.nuncbrand.com).
as §1
When testing the peptides against N. crassa and F. oxysporum, experiments were carried as described above apart from the incubation temperature was changed to 25° C. for N. crassa and 35° C. for F. oxysporum.
as §2, §3

IC50 Aspergillus fumigatus (Aspergillus fumigatus) [µg/mL] | IC50 Fusarium oxysporum (Fusarium oxysporum) [µg/mL] | SMILES
5.3 (≈ 4.92 µM) | 4.2 (≈ 3.9 µM) | C[C@@H](NC(=O)[C@H](CCCCN)NC(=O)[C@H](CCCCN)NC(=O)[C@@H](N)CCCNC(=N)N)C(=O)N[C@@H](Cc1c[nH]c2ccccc12)C(=O)N[C@@H](Cc1ccccc1)C(=O)N[C@@H](Cc1c[nH]c2ccccc12)C(=O)NCC(=O)O [MFIGAF000, NH2-Arg-Lys-Lys-ala-Trp-Phe-Trp-Gly-COOH] (HELM PEPTIDE1{R.K.K.[dA].W.F.W.G}$$$$V2.0)
1.5 | 1.8 | CN1/C(=C/C=C(/C=C/C2=[N+](C)c3ccccc3C2(C)C)c2ccc(C(=O)NCCCC[C@@H]3NC(=O)[C@H](Cc4c[nH]c5ccccc45)NC(=O)[C@H](Cc4ccccc4)NC(=O)[C@H](Cc4c[nH]c5ccccc45)NC(=O)[C@@H](Cc4ccccc4)NC(=O)[C@H](CCCCN)NC(=O)[C@H](CCCCN)NC(=O)[C@H](CCCNC(=N)N)NC3=O)cn2)C(C)(C)c2ccccc21 [MFIGAF001c, Cyclo(Arg-Lys-Lys-phe-Trp-Phe-Trp-Lys(Cy5))] (cyclo(FWK(X1)RKK[dF]W))
2.9 (≈ 1.85 µM) | 3.0 (≈ 1.92 µM) | N=C(N)NCCC[C@@H]1NC(=O)[C@H](CCCCNC(=O)c2cccc3c2C(=O)OC32c3ccc(O)cc3Oc3cc(O)ccc32)NC(=O)[C@H](Cc2c[nH]c3ccccc23)NC(=O)[C@H](Cc2ccccc2)NC(=O)[C@H](Cc2c[nH]c3ccccc23)NC(=O)[C@@H](Cc2ccccc2)NC(=O)[C@H](CCCCN)NC(=O)[C@H](CCCCN)NC1=O [MFIGAF001d, Cyclo(Arg-Lys-Lys-phe-Trp-Phe-Trp-Lys(CF))] (cyclo(FWK(X2)RKK[dF]W))
2.8 (≈ 2.43 µM) | 3.5 (≈ 3.03 µM) | N=C(N)NCCC[C@H](N)C(=O)N[C@@H](CCCCN)C(=O)N[C@@H](CCCCN)C(=O)N[C@H](Cc1ccccc1)C(=O)N[C@@H](Cc1c[nH]c2ccccc12)C(=O)N[C@@H](Cc1ccccc1)C(=O)N[C@@H](Cc1c[nH]c2ccccc12)C(=O)NCC(=O)O [MFIGAF002, NH2-Arg-Lys-Lys-phe-Trp-Phe-Trp-Gly-COOH] (HELM PEPTIDE1{R.K.K.[dF].W.F.W.G}$$$$V2.0)
5.2 (≈ 4.71 µM) | 4.1 (≈ 3.71 µM) | N=C(N)NCCC[C@H](N)C(=O)N[C@@H](CCCCN)C(=O)N[C@@H](CCCCN)C(=O)N1CCC[C@H]1C(=O)N[C@@H](Cc1c[nH]c2ccccc12)C(=O)N[C@@H](Cc1ccccc1)C(=O)N[C@@H](Cc1c[nH]c2ccccc12)C(=O)NCC(=O)O [MFIGAF003, NH2-Arg-Lys-Lys-pro-Trp-Phe-Trp-Gly-COOH]
5.2 (≈ 4.71 µM) | 4.1 (≈ 3.71 µM) | N=C(N)NCCC[C@H](N)C(=O)N[C@@H](CCCCN)C(=O)N[C@@H](CCCCN)C(=O)N1CCC[C@@H]1C(=O)N[C@@H](Cc1c[nH]c2ccccc12)C(=O)N[C@@H](Cc1ccccc1)C(=O)N[C@@H](Cc1c[nH]c2ccccc12)C(=O)NCC(=O)O [MFIGAF004]
6.3 (≈ 5.94 µM) | 3.1 (≈ 2.92 µM) | C[C@H]1NC(=O)[C@H](CCCCN)NC(=O)[C@H](CCCCN)NC(=O)[C@H](CCCNC(=N)N)NC(=O)CNC(=O)[C@H](Cc2c[nH]c3ccccc23)NC(=O)[C@H](Cc2ccccc2)NC(=O)[C@H](Cc2c[nH]c3ccccc23)NC1=O [MFIGAF005, Cyclo(Arg-Lys-Lys-ala-Trp-Phe-Trp-Gly)] (HELM PEPTIDE1{F.W.G.R.K.K.[dA].W}$PEPTIDE1,PEPTIDE1,1:R1-8:R2$$$V2.0)
5.2 (≈ 4.79 µM) | 3.4 (≈ 3.13 µM) | N=C(N)NCCC[C@@H]1NC(=O)CNC(=O)[C@H](Cc2c[nH]c3ccccc23)NC(=O)[C@H](Cc2ccccc2)NC(=O)[C@H](Cc2c[nH]c3ccccc23)NC(=O)[C@@H]2CCCN2C(=O)[C@H](CCCCN)NC(=O)[C@H](CCCCN)NC1=O [MFIGAF007, Cyclo(Arg-Lys-Lys-pro-Trp-Phe-Trp-Gly)]
5.5 (≈ 5.06 µM) | 3.8 (≈ 3.5 µM) | N=C(N)NCCC[C@@H]1NC(=O)CNC(=O)[C@H](Cc2c[nH]c3ccccc23)NC(=O)[C@H](Cc2ccccc2)NC(=O)[C@H](Cc2c[nH]c3ccccc23)NC(=O)[C@H]2CCCN2C(=O)[C@H](CCCCN)NC(=O)[C@H](CCCCN)NC1=O [MFIGAF008]
